Results published in US8143245B2 (Pierre Fabre Medicament, priority 2006, dated 2012).
Marks after values point to notes of the source that are not given here.

What was measured:
salivation = details: preclinical animal studies; cited from earlier work
[1] = system: M3 muscarinic receptors versus M2 muscarinic receptors; details: cited from earlier work
[2] = system: pilocarpine-induced sialorrhea in the rat; experiment: Pilocarpine-induced sialorrhea, inhibition of salivary secretion after p.o. administration; format: in vivo
Protocol: For the purpose of evaluating anticholinergic activity in the validated model of pilocarpine-induced sialorrhea in the rat, groups of animals were fasted and the next day the products were administered orally 90 minutes before intra-peritoneal injection of pilocarpine (0.5 mg.kg^-1). The compounds tested were administered in doses of 2.5, 5 and 10 mg.kg^-1. […] The animals were anaesthetized and then the salivary secretion was collected for 60 minutes, every ten minutes. The samples were then dried and weighed.

[3] = target: T1, human M1 muscarinic receptor (Homo sapiens, UniProt P11229); experiment: V0162 receptor binding in vitro, CHO cells transfected with human M1, tritiated pirenzepine; details: M1(h)
T1 sequence (P11229 1-460): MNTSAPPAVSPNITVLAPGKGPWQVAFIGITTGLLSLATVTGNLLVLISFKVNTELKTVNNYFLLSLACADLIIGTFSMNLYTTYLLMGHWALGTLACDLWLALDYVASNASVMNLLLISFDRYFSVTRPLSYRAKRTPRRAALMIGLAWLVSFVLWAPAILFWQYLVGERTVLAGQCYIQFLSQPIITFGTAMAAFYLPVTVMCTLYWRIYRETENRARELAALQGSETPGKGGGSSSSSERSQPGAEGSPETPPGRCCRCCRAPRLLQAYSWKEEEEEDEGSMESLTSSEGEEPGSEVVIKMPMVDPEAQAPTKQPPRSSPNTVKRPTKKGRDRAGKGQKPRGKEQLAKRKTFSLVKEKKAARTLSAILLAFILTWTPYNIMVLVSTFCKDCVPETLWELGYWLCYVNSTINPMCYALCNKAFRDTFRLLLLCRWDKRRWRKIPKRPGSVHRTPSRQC
From the text: (§1) The purpose of this study is to determine an affinity constant for the compound with respect to the three classes of human muscarinic receptors in vitro. The model chosen is the CHO cell stably transfected with cDNAs coding for each of the three human muscarinic receptors. […] Binding with respect to the receptors is defined as follows: the difference between overall binding and non-specific binding determined in the presence of excess cold ligand. The results are expressed as a percentage of the optimal binding obtained with the model ligand (100%). […] The inhibition constants (Ki) were calculated by means of the Cheng Prusoff equation (Ki=IC50/(1+L/KD)); where L is the radioligand concentration and KD the affinity of the radioligand for the receptor.

[4] = target: T2, human M3 muscarinic receptor (Homo sapiens, UniProt P20309); experiment: V0162 receptor binding in vitro, CHO cells transfected with human M3, 4-DAMP; details: M3 (h)
T2 construct: expressed in transfected cells; host or cells: CHO cells, stably transfected
T2 sequence (P20309 whole entry): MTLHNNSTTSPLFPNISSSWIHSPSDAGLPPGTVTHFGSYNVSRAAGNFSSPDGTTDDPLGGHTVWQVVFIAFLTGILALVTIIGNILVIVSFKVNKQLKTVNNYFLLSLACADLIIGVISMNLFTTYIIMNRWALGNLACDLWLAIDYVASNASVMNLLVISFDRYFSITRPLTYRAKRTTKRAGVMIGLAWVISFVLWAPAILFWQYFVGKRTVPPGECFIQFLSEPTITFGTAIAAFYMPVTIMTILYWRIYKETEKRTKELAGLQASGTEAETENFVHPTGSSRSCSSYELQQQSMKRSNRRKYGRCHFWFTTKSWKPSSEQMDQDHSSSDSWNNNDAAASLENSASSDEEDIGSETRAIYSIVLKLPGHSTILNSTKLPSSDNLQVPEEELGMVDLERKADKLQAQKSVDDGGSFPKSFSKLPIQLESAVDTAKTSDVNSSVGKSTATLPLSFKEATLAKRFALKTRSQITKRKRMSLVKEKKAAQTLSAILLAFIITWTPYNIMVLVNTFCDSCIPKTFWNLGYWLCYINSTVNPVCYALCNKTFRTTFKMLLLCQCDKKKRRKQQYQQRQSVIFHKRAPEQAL
From the text: as §1

[5] = Anticholinergic activity in vivo by intravenous administration
[6] = system: explants taken from the guinea pig (contractions induced by acetylcholine); experiment: Anticholinergic effect ex vivo, contractions induced by acetylcholine in explants; details: for Response to Acetylcholine Max. Response (%): test curve, mean ± sem, n = 6
Protocol: The purpose of these experiments was to confirm the anticholinergic activity of […] on a living organ. In order to do so, explants taken from the guinea pig were kept alive. The morphology of the preparations was homogeneous from batch to batch. Each explant was placed in a survival chamber and immersed in a physiological solution of composition (mM): NaCl (118); KCl (4.7); […] CaCl2 (2.5); […] NaHCO3 (25); glucose (11), at a temperature of 37° C. and with a pH of 7.4. Before the test, the following agents were dispersed in the survival buffer in order to block non-specific responses to acetylcholine: […] (10^-6 M) to block β2-adrenergic responses; cimetidine (10^-5 M) to block type 2 histaminergic responses; methysergide (10^-6 M) to block serotoninergic responses and indomethacine (3×10^-6 M) to prevent the appearance of muscle tonus due to a release of prostaglandins by the preparation itself. At the time of acquisition, the tissues were connected to […] in order to continuously record the variations in tension. After 60 minutes of calibration of the preparations, the tissues were exposed to variable concentrations of […]. The contractions induced by acetylcholine as dose responses were carried out in order to determine the response of the preparation to the stimulation in the absence of the putative inhibitor.

[7] = system: increase in intravesical pressure induced by bethanechol; experiment: Intravesical pressure (cystomanometry) after bethanechol; format: in vivo; details: compared to oxybutyrine
Protocol: The objective of this study was to measure intravesical pressure and salivation, in the animal, for the purpose of testing the uroselectivity of the anti-muscarinics, when they are administered orally and vaginally. In order to evaluate intravesical pressure, the bladders of the animals were catheterized in order to make possible recording (cystomanometry: continuous recording of the vesical pressure). The products to be tested were administered either per os at a dose of 5 mg.Kg^-1 or by local application of a suspension of […] at 0.4% in a vehicle with a base of cyclodextrin and arginine. The jugular vein was also cannulated in order to administer a muscarinic agonist: bethanechol (200 μg/kg, iv). At each administration of bethanechol, the variation of vesical pressure (ΔPV, mmHg) and the quantity of saliva (mg) were evaluated and quantified. The positive control was made up of a group of animals treated with oxybutyrine (Ditropan®; 10, 100 and 1000 μg/kg, iv).

[8] = Transmucosal passage: repeated nasal administration of V0162 suspension, circulating level and tolerance; format: in vivo, rabbit; details: for Level of V0162: rabbit plasma, nasal 0.4% suspension twice per day
Protocol: 48 rabbits were treated nasally daily for 28 days with a suspension titrated at 0.4% mass/volume. […] Each group was made up of males and females equally. Nasal administration of the suspension was carried out twice per day for 28 days. Plasma samples were taken on D1, D2, D7, D28, D35. The samples were analyzed by an LC/MS/MS method validated by assay of V0162.

[9] = p.o. 5 mg·kg^−1, comparison of racemic mixture and enantiomers (Table 4)
[10] = p.o. 2.5 mg·kg^−1, 90 min before pilocarpine
[11] = p.o. 10 mg·kg^−1, 90 min before pilocarpine

Cc1ccc(O)c([C@H](CCN(C(C)C)C(C)C)c2ccccc2)c1 [tolterodine]
Effect on salivation (salivation): reduces salivation less | Selectivity between M3 and M2 receptor [1]: more specific for the M2 receptor than for the M3 receptor

CN1[C@@H]2CC[C@H]1C[C@@H](OC(=O)C(CO)c1ccccc1)C2 (some centres unmarked) [Atropine, reference compound]
Inhibition (%) ([2]; 1 mg·kg^−1, positive control): 98* %

c1ccc2c(c1)Sc1ccccc1N2C[C@@H]1CN2CCC1CC2 [10-[(3S)-1-azabicyclo[2.2.2]oct-3-ylmethyl]-10H-phenothiazine, reference compound]
nH (Hill coefficient) [3]: 1.1 | Inhibition (%) [2, 9]: −4% | nH (Hill coefficient) [4]: 1.0 | Anticholinergic activity in vivo [5]: does not demonstrate clear activity

c1ccc2c(c1)Sc1ccccc1N2CC1CN2CCC1CC2 (racemic) [10-[(3R,3S)-1-azabicyclo[2.2.2]oct-3-ylmethyl]-10H-phenothiazine, reference compound]
nH (Hill coefficient) [3]: 0.8 | Inhibition (%) [2, 9]: 73* % | nH (Hill coefficient) [4]: 1.2

NC(=O)C(c1ccccc1)(c1ccccc1)[C@@H]1CCN(CCc2ccc3c(c2)CCO3)C1 [darifenacine]
Effect on salivation (salivation): reduce salivation | Affinity for M3 muscarinic receptors higher than for M2 muscarinic receptors [1]: 7 times | Selectivity between M3 and M2 receptor [1]: more selective with respect to the M3 receptor than with respect to the M2

CCN(CC)CC#CCOC(=O)C(O)(c1ccccc1)C1CCCCC1 (centres unmarked) [oxybutynine]
Effect on salivation (salivation): reduce salivation

c1ccc2c(c1)Sc1ccccc1N2C[C@H]1CN2CCC1CC2 [V0162, 10-[(3R)-1-azabicyclo[2.2.2]oct-3-ylmethyl]-10H-phenothiazine]
Response to Acetylcholine Max. Response (%) ([6]; V0162 30 nM): 98 ± 1% | Response to Acetylcholine Max. Response (%) ([6]; V0162 100 nM): 98 ± 1% | Response to Acetylcholine Max. Response (%) ([6]; V0162 300 nM): 98 ± 1% | Mode of action towards acetylcholine ([6]; ex vivo model): behaves like an antagonistic competitor of acetylcholine | Increase in intravesical pressure induced by bethanecol ([7]; local application of 0.4% suspension, bethanechol 200 μg/kg iv): significantly reduces the increase in intravesical pressure | Increase in intravesical pressure induced by bethanecol ([7]; per os 5 mg.Kg^−1, bethanechol 200 μg/kg iv): significantly reduces the increase in intravesical pressure | Level of V0162 ([8]; Day 1/4 hours after administration): 0.88 ng/mL | Level of V0162 ([8]; Day 1/before administration): BLQ | Level of V0162 ([8]; Day 2/before administration): 0.22 ng/mL | Level of V0162 ([8]; Day 7/before administration): 0.41 ng/mL | Level of V0162 ([8]; Day 28/4 hours after administration): 1.35 ng/mL | Level of V0162 ([8]; Day 28/24 hours after administration): 0.23 ng/mL | Level of V0162 ([8]; Day 35/before administration): BLQ | Toxic effects (histological plane, respiratory rhythm, heart rate, behaviour) ([8]; rabbit, in vivo): do not lead to toxic effects | Effects on the nasal mucosa ([8]; rabbit, nasal 0.4% suspension twice per day for 28 days): does not induce deleterious effects on the nasal mucosa | Circulating level ([8]; rabbit, nasal administration of a suspension): ~4 nM | Inhibition (%) [2, 10]: 29% | Secretion [2, 10]: 735.6 mg | Secretion ([2]; p.o. 5 mg·kg^−1, 90 min before pilocarpine): 338.9 mg | Inhibition (%) ([2]; p.o. 5 mg·kg^−1, 90 min before pilocarpine (Table 3)): 67* % | Inhibition (%) [2, 9]: 77* % | Inhibition (%) [2, 11]: 95* % | Secretion [2, 11]: 45.1 mg | Anticholinergic activity in vivo [5]: anticholinergic by intravenous administration
